Tests used:
GA muscle nuclei = assay: Single-nucleus RNA sequencing of GA muscle; type: in vivo, mouse
Experimental: Single-nucleus isolation was performed as previously described 41. GA muscles were isolated from mice immediately following euthanasia. The muscles were minced and homogenized with homogenization buffer, 0.25M sucrose and 1% BSA diluted in Mg^2+-free, Ca^2+-free, RNase-free PBS (#AM9624, Invitrogen, Grand Island, NY, USA). The homogenates were incubated with 2.5% Triton-X100/RNase-free PBS at a 1:6 ratio for five minutes. After being filtered through a 100-um strainer, samples were centrifuged at 3000×g for 10 min at 4° C., resuspended in 2% BSA/RNase-free PBS, and then filtered through a 40-μm strainer again. Nuclei were labeled by DAPI with 0.2 U/μL RNase inhibitor (#N8080119, Thermo Fisher Scientific). Labeled nuclei were sorted by FACS Aria II Cell Sorter with 70 μm nozzle (BD Biosciences, San Jose, CA, USA) into 2% BSA/RNase-free PBS with RNase inhibitor. Isolated nuclei were observed by confocal fluorescent microscope (Leica TCS SP8, Wetzlar, Germany) to confirm integrity. To adjust the optimal concentration of nuclei for the 10X Chromium system, isolated nuclei were counted and diluted or concentrated by centrifugation at 250×g for 5 min at 4° C. Single-nucleus RNA-sequencing libraries were constructed by the Chromium Single Cell 3′ reagent kit v2 (10X Genomics, Pleasanton, CA, USA) per the manufacturer's protocol. Following the library preparation, the libraries were sequenced on the NovaSeq 6000 System (Illumina, San Diego, CA, USA) and the 10x Genomics cellranger count pipeline produced 6072 single-nucleus transcriptomes (2128, 2015 and 1929 transcriptomes for Young+Vehicle, Aged+Vehicle, and Aged+GB groups) with 25453, 27,741, and 34,120 reads per nuclei, and 1018, 923, and 1061 genes per nuclei for Young+Vehicle, Aged+Vehicle, and Aged+GB groups respectively.
The single-cell feature-barcode matrices from 10x Genomics cellranger count pipeline were imported into R version 4.1.3 and processed with Seurat 4.2.0. Next, ambient RNA was corrected by SoupX package43. […] Cell cycle genes were corrected for as described in Seurat's Cell-Cycle Scoring and Regression vignette. […] All remaining single-nuclei of each sample were then processed with dimension reduction and Louvain clustering as per Seurat's standard vignette. A combined Seurat object was also created following Seurat's integration protocol as described in Seurat's scRNA-seq integration using default parameters. Dimension reduction and clustering were also performed on the combined dataset as described above. Clusters were annotated using established cell type markers. […]

[1] = test system: aged M1 macrophages, MPD C2C12, MPD C2C12-derived myotubes; assay: Inflammatory cytokine expression in aged cells under culture conditions; type: cell-based, mouse; details: GB 5 mg/L for 48 hr
Excerpt: C2C12 myoblast cell line (#CRL-1772TM, ATCC, Manassas, VA, USA) was expanded in high-glucose DMEM (#D7777, Sigma-Aldrich) with 10% FBS (#10270106, Gibco, Waltham, MA, USA) and 1% PSG (#10378016, Gibco). Passage 15-20 C2C12 was considered as multiple population doublings C2C12. Subconfluent C2C12 was differentiated to myotubes by myogenic induction medium, high-glucose DMEM (Sigma-Aldrich) containing 2% horse scrum (#16050122, Gibco) for 5 days. Aged bone-marrow monocytes were isolated from 20-month-old female C57BL/6 mice and then differentiated into macrophages in RPMI 1640 (#11875085, Gibco) supplemented with 10% FBS and 20 ng/ml M-CSF (#315-02, PeproTech, Cranbury, NJ, USA). Inflammatory MI macrophages were induced by 45 ng/mL IFN-γ (#485-MI-100, R&D Systems, Minneapolis, MN, USA) +100 ng/mL LPS (#L4391, Sigma-Aldrich). The indicative cells were then treated with or without GB (5 mg/L) for 48 hr. […]
(§1) RNAs were purified by using the TRIzol® (#15596018, Invitrogen) and chloroform method (#C7559, Sigma-Aldrich) and reversed transcribed using High-Capacity cDNA Reverse Transcription Kit (#4368814, Applied Biosystems, Foster City, CA, USA). The quantitative RT-PCR was conducted with universal probe system (Roche Life Science, Indianapolis, IN, USA) by using a QuantStudio™ 7 Flex Real-Time PCR System (Applied Biosystems) and was normalized by the expression of GAPDH.

p16, p19, p57, γ-H2AX = assay: Senescence markers in multiple tissues of aged mice (real-time PCR, IHC); type: in vivo, mouse
Experimental: as §1

With CC1C(=O)OC2C(O)C34C5CC(C(C)(C)C)C36C(OC(=O)C6O)OC4(C(=O)O5)C12O (stereo not shown) [GB, Ginkgolide B] the “reversal of aging-related changes in nucleus proportion” value (GA muscle nuclei; 8/14 nuclear types, GA muscle of aged mice) was 57%, the “expression levels of Runx1 in myonucleus and number of aging-elicited Runx1+ Type 2b myonuclei” value (GA muscle nuclei; GA muscle of aged mice) was “reduced” and the “aging-related changes in the numbers and proportion of myonuclei” value (GA muscle nuclei; covering all 5 myonucleus subclusters altered by aging) was “reversed”. For the same compound, the “number of Ptprc+ immune cells in skeletal muscle” value (GA muscle nuclei; particularly M2 and M2-like proliferating macrophages) was “increased”, the “inflammatory cytokines in aged cells under culture conditions” value [1] was “downregulated” and the “expression of histone γ-H2AX” value (p16, p19, p57, γ-H2AX; IHC, multiple tissues of aged mice) was “reduced”. For the same compound, the “expression of p16, p19 and p57” value (p16, p19, p57, γ-H2AX; liver, kidney, lung, spleen, heart and muscle of aged mice, except p16 in spleen and p57 in lung) was “significantly inhibited”.
